{"source": "patent US20170315129A1", "about": "“CANCER CELL DETECTION METHOD USING LIVING BODY-DERIVED CELLS OF BIOLOGICAL ORIGIN” (Hirosaki University, priority 2014, published 2017)", "key": {"pancreatic cancer cells": {"system": "pancreatic cancer cells", "conditions": "in vitro culture cells such as pancreatic cancer cells or cancer-bearing mice; cited from earlier work"}, "[1]": {"system": "ascites cells obtained during an operation of a patient with endometrial cancer (endometrioid adenocarcinoma)", "experiment": "Live-cell fluorescence imaging of ascites cells, endometrial cancer patient, with later Papanicolaou staining (Example 2)", "format": "cell-based, human", "method": "Immediately after the start of laparotomy for endometrial cancer (endometrioid adenocarcinoma), the peritoneal cavity was washed with physiological saline in the same manner as in Example 1 to obtain a peritoneal washing, which was then added to a 50 mL centrifuge tube having 5 mL of the Hanks solution in advance. The resulting ascitic fluid suspension was centrifuged at […] for 2 minutes at room temperature, and the supernatant was removed by decantation. Subsequently, 30 mL of a commercially available solution of ammonium chloride for hemolysis was added, and allowed to stand for 2 minutes, and then centrifuged at 1500 G for 2 minutes at room temperature, and the supernatant was then removed by decantation. Some of the resulting pellet was set aside for cytodiagnosis tests at the hospital's pathology department, and the rest was further divided into 2 portions, each of which was dispersed into 40 mL of a KRB solution in 50 mL centrifuge tubes, and stored at room temperature an a dark place until application of fLG on the next day. […]\nObservation and image acquisition were performed about 22 hours after obtaining ascites cells using the same instruments as in Example 1. […] Subsequently, a bright-field image and fluorescence images of the target cells were obtained using a high-power lens, and positional information on the stage was registered using a software dedicated for BZ-X700. […]"}}, "note": "Entries after “also recorded” stand apart in the source; their conditions may differ.", "data": [{"smiles": "O=C[C@@H](Nc1ccc([N+](=O)[O-])c2nonc12)[C@H](O)[C@@H](O)[C@@H](O)CO", "note": "[2-NBDLG, 2-[N-(7-nitrobenz-2-oxa-1,3-diazole-4-yl)amino]-2-deoxy-L-glucose]", "values": [{"measurement": "uptake into cancer cells", "setting": "pancreatic cancer cells", "value": "specific uptake"}, {"measurement": "intracellular localisation of 2-NBDLG uptake", "setting": "[1]; Cluster 1, FIG. 4A", "value": "taken up into the cytoplasmic portion except for the nucleus"}, {"measurement": "fluorescence from 2-NBDLG (green wavelength region)", "setting": "[1]; two cancer-cell clusters (left cluster and Cluster 1), 100 μM 2-NBDLG and 20 μM 2TRLG, fLG applied about 20 hours after sampling, FIG. 3B, 4D", "value": "show fluorescence; also recorded: positive"}]}]}
